Test results as given in patent US8604161B2 (priority 2002, dated 2013).

Tests used:
PrPres = PrPres (Mesocricetus auratus, UniProt P04273); conditions: for PrPres bound to resin in five 10 ml columns in series / removal of PrPres: 300 ml RBCC spiked with 0.1% scrapie hamster brain homogenate, Western blot of bead eluates; for Resin needed to remove all PrPres to the limit of detection of the Western blot: 300 ml spiked RBCC, 3 columns of 10 ml
haPrPc and haPrPsc = haPrPc and haPrPsc (Mesocricetus auratus, UniProt P04273); conditions: 3-mer library, hamster brain homogenates
Chain of haPrPc and haPrPsc (P04273 23-231 limits assumed): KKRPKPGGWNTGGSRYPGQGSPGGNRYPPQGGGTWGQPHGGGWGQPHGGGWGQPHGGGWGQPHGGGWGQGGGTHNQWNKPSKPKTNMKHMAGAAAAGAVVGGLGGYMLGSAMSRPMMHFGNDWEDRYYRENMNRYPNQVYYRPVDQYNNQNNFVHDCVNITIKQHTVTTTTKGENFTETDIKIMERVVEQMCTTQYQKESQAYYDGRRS

PrPc = PrPc (Mesocricetus auratus, UniProt P04273); conditions: 1% normal hamster brain homogenate, 0.5 ml column
Chain of PrPc (P04273 23-231 limits assumed): as above

Chain of PrPres (P04273 23-231 limits assumed): as above

Substance	PrPres bound to resin in five 10 ml columns in series / removal of PrPres (PrPres)	Resin needed to remove all PrPres to the limit of detection of the Western blot (PrPres)	Preferential binding of PrPsc over PrPc (haPrPc and haPrPsc)	Location of bound PrPc on chopped resin beads (PrPc)
(D)ES(na)PRQ-EACA [SEQ ID NO:226]	decreasing amounts of PrPres on columns 1 through 3			
DVR [SEQ ID NO:114]	remove all of the PrPres to the limit of detection of the Western blot in 3 columns	30 mL	bind preferentially PrPsc over PrPc	protein bound to the exterior of the beads
SYA [SEQ ID NO:108]	remove all of the PrPres to the limit of detection of the Western blot in 3 columns	30 mL		
VQR [SEQ ID NO:111]			bind preferentially PrPsc over PrPc	
WFVEA [SEQ ID NO:225]	does not bind and remove all of the prion protein to the limit of detection			
YVHEA [SEQ ID NO:63]	decreasing amounts of PrPres on columns 1 through 3			
